# Measured values as given in US6610665B1 (Smithkline Beecham Corporation, priority 1998, dated 2003).
# Experiments:
# Assay type in all cases: cell-based
# Details in all cases: ratio to NECA; CHO cells, SPAP readout
# [1] = biological target: T1, adenosine 2a receptor (Homo sapiens, UniProt P29274); assay: Agonist activity, CHO cells transfected with human adenosine receptor and CRE-SPAP reporter; basal cAMP (A2a)
# T1 construct: expressed in transfected cells; host or cells: CHO cells
# Description: (§1) (1) Agonist activity against adenosine 2a, adenosine 1 and adenosine 3 receptor subtypes.
# (§2) Agonist selectivity of compounds against other human adenosine receptors is determined using Chinese hamster ovary (CHO) cells transfected with the gene for the relevant human adenosine receptor following a method based on that of Castanon and Spevak, 1994. The CHO cells are also transfected with cyclic AMP response elements promoting the gene for secreted placental alkaline phosphatase (SPAP) (Wood, 1995). The effect of test compounds may be determined by their effects on basal levels of CAMP (A2a) or on forskolin-enhanced cAMP (A1 and A3) as reflected by changes in levels of SPAP. EC50 values for compounds may then be determined as a ratio to that of the non-selective agonist N-ethyl carboxamide adenosine (NECA).
# [2] = biological target: T2, adenosine 3 receptor (Homo sapiens, UniProt P0DMS8); assay: Agonist activity, CHO cells transfected with human adenosine receptor and CRE-SPAP reporter; forskolin-enhanced cAMP (A3)
# T2 construct: expressed in transfected cells; host or cells: CHO cells
# T2 sequence (P0DMS8 1-318): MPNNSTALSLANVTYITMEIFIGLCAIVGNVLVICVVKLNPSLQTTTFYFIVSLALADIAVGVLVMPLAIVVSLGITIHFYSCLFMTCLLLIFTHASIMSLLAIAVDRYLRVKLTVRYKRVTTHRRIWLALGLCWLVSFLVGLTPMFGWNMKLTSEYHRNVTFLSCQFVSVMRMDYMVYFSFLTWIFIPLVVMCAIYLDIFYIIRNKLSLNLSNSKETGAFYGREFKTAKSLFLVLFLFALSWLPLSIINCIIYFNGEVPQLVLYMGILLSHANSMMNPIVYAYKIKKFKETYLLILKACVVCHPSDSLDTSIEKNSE
# Description: as §1, §2
# [3] = biological target: T3, adenosine 1 receptor (Homo sapiens, UniProt P30542); assay: Agonist activity, CHO cells transfected with human adenosine receptor and CRE-SPAP reporter; forskolin-enhanced cAMP (A1)
# T3 construct: expressed in transfected cells; host or cells: CHO cells
# T3 sequence (P30542 1-326): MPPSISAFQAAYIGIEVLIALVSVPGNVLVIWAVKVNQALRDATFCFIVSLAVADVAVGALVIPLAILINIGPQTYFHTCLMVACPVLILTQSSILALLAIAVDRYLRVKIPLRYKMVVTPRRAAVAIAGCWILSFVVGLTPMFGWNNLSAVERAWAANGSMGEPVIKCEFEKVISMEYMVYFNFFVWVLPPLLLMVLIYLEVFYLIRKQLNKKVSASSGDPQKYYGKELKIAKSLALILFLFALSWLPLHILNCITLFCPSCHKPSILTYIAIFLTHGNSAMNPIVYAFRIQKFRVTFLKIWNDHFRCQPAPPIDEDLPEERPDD
# Description: as §1, §2
# T1 sequence (P29274 whole entry): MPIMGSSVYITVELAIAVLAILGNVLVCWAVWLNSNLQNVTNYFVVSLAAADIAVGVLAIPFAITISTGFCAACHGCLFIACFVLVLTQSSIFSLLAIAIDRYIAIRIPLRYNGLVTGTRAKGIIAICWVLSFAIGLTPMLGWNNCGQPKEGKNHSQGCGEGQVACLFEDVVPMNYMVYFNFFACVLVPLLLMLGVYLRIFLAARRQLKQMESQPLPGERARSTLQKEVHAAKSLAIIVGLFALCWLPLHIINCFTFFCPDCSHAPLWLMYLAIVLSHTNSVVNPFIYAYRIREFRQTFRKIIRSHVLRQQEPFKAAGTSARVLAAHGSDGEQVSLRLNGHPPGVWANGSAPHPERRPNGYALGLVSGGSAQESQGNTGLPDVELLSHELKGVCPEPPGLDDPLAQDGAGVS
Molecule,"A2a, EC50 as a ratio of that of NECA [1]","A3, EC50 as a ratio of that of NECA [2]","A1, EC50 as a ratio of that of NECA [3]"
CCc1noc(C2OC(n3cnc4c(NCC(c5ccccc5)c5ccccc5)nc(NCCN5CCCC5)nc43)C(O)C2O)n1.O=CO.O=CO (stereo not drawn) [Example 39],30.21,>130,4505.4
CCc1noc([C@H]2O[C@@H](n3cnc4c(NCC(c5ccccc5)c5ccccc5)nc(NCCNc5ccccn5)nc43)[C@H](O)[C@@H]2O)n1.O=CO.O=CO [Example 40],4.89,>130,>=3311.7
"CCc1noc([C@H]2O[C@@H](n3cnc4c(NCC(c5ccccc5)c5ccccc5)nc(NC5CC6CCC5C6)nc43)[C@H](O)[C@@H]2O)n1.O=CO (stereo partly drawn) [Example 41, (2R,3R,4S,5S)-2-{2-(Bicyclo[2.2.1]hept-2-ylamino)-6-(2,2-diphenyl-ethylamino)-purin-9-yl}-5-(3-ethyl-[1,2,4]oxadiazol-5-yl)-tetrahydro-furan-3,4-diol formate]",23.93,>130,2033.2
"CCc1noc([C@H]2O[C@@H](n3cnc4c(NCC(c5ccccc5)c5ccccc5)nc(NCCc5ccc(OC)c(OC)c5)nc43)[C@H](O)[C@@H]2O)n1.O=CO [Example 42, (2R,3R,4S,5S)-2-{2-(2-[3,4-Dimethoxy-phenyl]-ethylamino)-6-(2,2-diphenyl-ethylamino)-purin-9-yl}-5-(3-ethyl-[1,2,4]oxadiazol-5-yl)-tetrahydro-furan-3,4-diol formate]",32.77,>130,>6064
"CCc1noc([C@H]2O[C@@H](n3cnc4c(NCC(c5ccccc5)c5ccccc5)nc(NCCO)nc43)[C@H](O)[C@@H]2O)n1.O=CO [Example 43, (2R,3R,4S,5S)-2-[6-(2,2-Diphenyl-ethylamino)-2-(2-hydroxy-ethylamino)-purin-9-yl]-5-(3-ethyl-[1,2,4]oxadiazol-5-yl)-tetrahydro-furan-3,4-diol formate]",6.85,>130,1367.6
"CCc1noc([C@H]2O[C@@H](n3cnc4c(NCC(c5ccccc5)c5ccccc5)nc(Nc5ccc(F)cc5)nc43)[C@H](O)[C@@H]2O)n1.O=CO [Example 44, (2R,3R,4S,5S)-2-[6-(2,2-Diphenyl-ethylamino)-2-(4-fluoro-phenylamino)-purin-9-yl]-5-(3-ethyl-[1,2,4]oxadiazol-5-yl)-tetrahydro-furan-3,4-diol formate]",94.39,>165,>6131
"CCc1noc(C2OC(n3cnc4c(NCC(c5ccccc5)c5ccccc5)nc(NC5CCN(Cc6ccccc6)C5)nc43)C(O)C2O)n1 [Example 45, (2R,3R,4S,5S)-2-[2-(1-Benzyl-pyrrolidin-3S-ylamino)-6-(2,2-diphenyl-ethylamino)-purin-9-yl]-5-(3-ethyl-[1,2,4]oxadiazol-5-yl)-tetrahydro-furan-3,4-diol diformate]",29.82,>165,>3738.84
CCc1noc([C@H]2O[C@@H](n3cnc4c(NCCc5ccccc5)nc(NCCc5cn(C)cn5)nc43)[C@H](O)[C@@H]2O)n1.O=CO.O=CO [Example 46],0.90,>165,3560.13
"CCc1noc(C2OC(n3cnc4c(NCCC5CCCCC5)nc(NCCc5cn(C)cn5)nc43)C(O)C2O)n1.O=CO.O=CO [Example 47, (2R,3R,4S,5S)-2-{6-(2-cyclohexylethylamino)-2-[2-(1-methyl-1H-imidazol4-yl)ethylamino]-purin-9-yl}-5-(3-ethyl-[1,2,4]oxadiazol-5-yl)-tetrahydro-furan-3,4-diol diformate]",6.93,>165,4993.28
"CCc1noc(C2OC(n3cnc4c(NCCC(C)(C)C)nc(NCCc5cn(C)cn5)nc43)C(O)C2O)n1.O=CO.O=CO [Example 48, (2R,3R,4S,5S)-2-{6-(3,3-Dimethyl-butylamino)-2-[2-(1-methyl-1H-imidazol-4-yl)-ethylamino]-purin-9-yl}-5-(3-ethyl-[1,2,4]oxadiazol-5-yl)-tetrahydro-furan-3,4-diol diformate]",4.40,>165,16.84
"(2S,3S,4R,5R)-2-(3-Cyclopropyl-[1,2,4]oxadiazol-5-yl)-5-[6-(1-ethyl-propylamino)-2-(2-(1-methyl-1H-imidazol-4-yl)-ethylamino)-purin-9-yl]-tetrahydro-furan-3,4-diol diformate [Example 38]",2.02,>87,670.04
